Values of other authors, collected in patent US20050003003A1, “Modulation of release from dry powder formulations” (Advanced Inhalation Research, Inc., priority 1999, published 2005).
Like-named read-outs stand apart in the source and are kept apart here.

Conditions: for transition temperature (Tc): bulk hydrated state; for theoretical transition: phospholipid of the formulation
[1] = Table 1, phospholipids with low transition temperatures
[2] = Table 2, phospholipids with high transition temperatures

Row | Compound | Transition Temperature [1] | Transition Temperature [2] | also measured
1 | CCCCCCCCCCCCCC(=O)OC[C@H](COP(=O)(O)OCC(O)CO)OC(=O)CCCCCCCCCCCCC (mixture of isomers) [DMPG, 1,2-Dimyristoyl-sn-glycero-3-[phospho-rac-(1-glycerol)]] | 23 °C | – | –
2 | CCCCCCCCCCCCCCCC(=O)OC[C@H](COP(=O)(O)OCC(O)CO)OC(=O)CCCCCCCCCCCCCCC (mixture of isomers) [DPPG, 1,2-Dipalmitoyl-sn-glycero-3-[phospho-rac-(1-glycerol)]] | 41 °C | – | –
3 | CCCCCCCCCCCCCCCCCC(=O)OCC(COP(=O)(O)OCC(O)CO)OC(=O)CCCCCCCCCCCCCCCCC (racemic) [DSPG, 1,2-Distearoyl-sn-glycero-3-[phospho-rac-(1-glycerol)]] | – | 55 °C | –
4 | CCCCCCCCCCCCCCCCC(=O)OC[C@H](COP(=O)([O-])OCC[N+](C)(C)C)OC(=O)CCCCCCCCCCCCCCCC [1,2-Diheptadecanoyl-sn-glycero-3-phosphocholine] | – | 48 °C | –
5 | CCCCCCCCCCCCCC(=O)OC[C@H](COP(=O)(O)OC[C@H](N)C(=O)O)OC(=O)CCCCCCCCCCCCC [1,2-Dimyristoyl-sn-glycero-3-[phospho-L-serine]] | 35 °C | – | –
6 | CCCCCCCCCCCCCCCC(=O)OC[C@H](COP(=O)(O)OC[C@H](N)C(=O)O)OC(=O)CCCCCCCCCCCCCCC [1,2-Dipalmitoyl-sn-glycero-3-[phospho-L-serine]] | – | 54 °C | –
7 | CCCCCCCCCCCCCCC(=O)OC[C@H](COP(=O)([O-])OCC[N+](C)(C)C)OC(=O)CCCCCCCCCCCCCC [1,2-Dipentadecanoyl-sn-glycero-3-phosphocholine] | 33 °C | – | –
8 | CCCCCCCCCCCCCCCCCC(=O)OC[C@H](COP(=O)(O)OC[C@H](N)C(=O)O)OC(=O)CCCCCCCCCCCCCCCCC [1,2-Distearoyl-sn-glycero-3-[phospho-L-serine]] | – | 68 °C | –
9 | CCCCCCCCCCCCC(=O)OC[C@H](COP(=O)([O-])OCC[N+](C)(C)C)OC(=O)CCCCCCCCCCCC [1,2-Ditridecanoyl-sn-glycero-3-phosphocholine] | 14 °C | – | –
10 | CCCCCCCCCCCCCCCC(=O)O[C@H](COC(=O)CCCCCCCCCCCCC)COP(=O)([O-])OCC[N+](C)(C)C [1-Myristoyl-2-palmitoyl-sn-glycero-3-phosphocholine] | 35 °C | – | –
11 | CCCCCCCCCCCCCCCCCC(=O)O[C@H](COC(=O)CCCCCCCCCCCCC)COP(=O)([O-])OCC[N+](C)(C)C [1-Myristoyl-2-stearoyl-sn-glycero-3-phosphocholine] | 40 °C | – | –
12 | CCCCCCCCCCCCCCCC(=O)OC[C@H](COP(=O)([O-])OCC[N+](C)(C)C)OC(=O)CCCCCCCCCCCCC [1-Palmitoyl-2-myristoyl-sn-glycero-3-phosphocholine] | 27 °C | – | –
13 | CCCCCCCCCCCCCCCCCC(=O)O[C@H](COC(=O)CCCCCCCCCCCCCCC)COP(=O)([O-])OCC[N+](C)(C)C [1-Palmitoyl-2-stearoyl-sn-glycero-3-phosphocholine] | – | 49 °C | –
14 | CCCCCCCCCCCCCCCCCC(=O)OC[C@H](COP(=O)([O-])OCC[N+](C)(C)C)OC(=O)CCCCCCCCCCCCC [1-Stearoyl-2-myristoyl-sn-glycero-3-phosphocholine] | 30 °C | – | –
15 | CCCCCCCCCCCC(=O)OC[C@H](COP(=O)(O)O)OC(=O)CCCCCCCCCCC [DLPA, 1,2-Dilauroyl-sn-glycero-3-phosphate] | 31 °C | – | –
16 | CCCCCCCCCCCC(=O)OC[C@H](COP(=O)([O-])OCC[N+](C)(C)C)OC(=O)CCCCCCCCCCC [DLPC, 1,2-Dilauroyl-sn-glycero-3-phosphocholine] | −1 °C | – | –
17 | CCCCCCCCCCCC(=O)OC[C@H](COP(=O)(O)OCCN)OC(=O)CCCCCCCCCCC [DLPE, 1,2-Dilauroyl-sn-glycero-3-phosphoethanolamine] | 29 °C | – | –
18 | CCCCCCCCCCCCCC(=O)OC[C@H](COP(=O)(O)O)OC(=O)CCCCCCCCCCCCC [DMPA, 1,2-Dimyristoyl-sn-glycero-3-phosphate] | – | 50 °C | –
19 | CCCCCCCCCCCCCC(=O)OC[C@H](COP(=O)([O-])OCC[N+](C)(C)C)OC(=O)CCCCCCCCCCCCC [DMPC, 1,2-Dimyristoyl-sn-glycero-3-phosphocholine] | 23 °C | – | –
20 | CCCCCCCCCCCCCC(=O)OC[C@H](COP(=O)(O)OCCN)OC(=O)CCCCCCCCCCCCC [DMPE, 1,2-Dimyristoyl-sn-glycero-3-phosphoethanolamine] | – | 50 °C | –
21 | CCCCCCCCCCCCCCCC(=O)OC[C@H](COP(=O)(O)O)OC(=O)CCCCCCCCCCCCCCC [DPPA, 1,2-Dipalmitoyl-sn-glycero-3-phosphate] | – | 67 °C | –
22 | CCCCCCCCCCCCCCCC(=O)OC[C@H](COP(=O)([O-])OCC[N+](C)(C)C)OC(=O)CCCCCCCCCCCCCCC [DPPC, 1,2-Dipalmitoyl-sn-glycero-3-phosphocholine] | 41 °C | – | transition temperature (Tc): approximately 41 °C; theoretical transition: 41 °C
23 | CCCCCCCCCCCCCCCC(=O)OC[C@H](COP(=O)(O)OCCN)OC(=O)CCCCCCCCCCCCCCC [DPPE, 1,2-Dipalmitoyl-sn-glycero-3-phosphoethanolamine] | – | 63 °C | transition temperature (Tc): approximately 63 °C
24 | CCCCCCCCCCCCCCCCCC(=O)OC[C@H](COP(=O)([O-])OCC[N+](C)(C)C)OC(=O)CCCCCCCCCCCCCCCCC [DSPC, 1,2-Distearoyl-sn-glycero-3-phosphocholine] | – | 55 °C | transition temperature (Tc): approximately 55 °C; theoretical transition: 55 °C
25 | CCCCCCCCCCCCCCCCCC(=O)OC[C@H](COP(=O)(O)OCCN)OC(=O)CCCCCCCCCCCCCCCCC [DSPE, 1,2-Distearoyl-sn-glycero-3-phosphoethanolamine] | – | 74 °C | –
